This assay has as its target T1, DPP-IV (Homo sapiens, UniProt P27487).
T1 construct: Soluble human DPP-IV lacking the transmembrane anchor (Gly31-Pro766) was expressed in a recombinant YEAST-strain; Pre-Pro-alpha-mating factor leader (secretion fusion) (N, cleaved yes); made in house
As to the kind of experiment: Inhibition of DPP-IV peptidase activity, continuous fluorimetric assay (Gly-Pro-AMC cleavage). In kind it is biochemical, human and porcine. The settings on record: inhibition of DPP-IV peptidase activity; 50 pM DPP-IV, 16 μM Gly-Pro-AMC, pH 7.4, 25° C.; values grouped in 3 classes; read-out: IC50. On the procedure: Inhibition of DPP-IV peptidase activity was monitored with a continuous fluorimetric assay. This assay is based on the cleavage of the substrate Gly-Pro-AMC (Bachem) by DPP-IV, releasing free AMC. The assay is carried out in 96-well microtiterplates. In a total volume of 100 μL, compounds are preincubated with 50 pM DPP-IV employing a buffer containing 10 mM Hepes, 150 mM NaCl, 0.005% Tween 20 (pH 7.4). […] The final concentration of DMSO is 1%. The inhibitory potential of the compounds were determined.
Soluble human DPP-IV lacking the transmembrane anchor (Gly31-Pro766) was expressed in a recombinant YEAST-strain as Pre-Pro-alpha-mating fusion. The secreted product (rhuDPP-IV-Gly31-Pro766) was purified from fermentation broth (>90% purity).

Drawing on patent publication US20070197522A1, “Dpp-iv inhibitors” (priority 2004, published 2007), this text covers IC50 for 64 compounds.

Counter-ions that a name gives are not always drawn.

T1 sequence (P27487 31-766): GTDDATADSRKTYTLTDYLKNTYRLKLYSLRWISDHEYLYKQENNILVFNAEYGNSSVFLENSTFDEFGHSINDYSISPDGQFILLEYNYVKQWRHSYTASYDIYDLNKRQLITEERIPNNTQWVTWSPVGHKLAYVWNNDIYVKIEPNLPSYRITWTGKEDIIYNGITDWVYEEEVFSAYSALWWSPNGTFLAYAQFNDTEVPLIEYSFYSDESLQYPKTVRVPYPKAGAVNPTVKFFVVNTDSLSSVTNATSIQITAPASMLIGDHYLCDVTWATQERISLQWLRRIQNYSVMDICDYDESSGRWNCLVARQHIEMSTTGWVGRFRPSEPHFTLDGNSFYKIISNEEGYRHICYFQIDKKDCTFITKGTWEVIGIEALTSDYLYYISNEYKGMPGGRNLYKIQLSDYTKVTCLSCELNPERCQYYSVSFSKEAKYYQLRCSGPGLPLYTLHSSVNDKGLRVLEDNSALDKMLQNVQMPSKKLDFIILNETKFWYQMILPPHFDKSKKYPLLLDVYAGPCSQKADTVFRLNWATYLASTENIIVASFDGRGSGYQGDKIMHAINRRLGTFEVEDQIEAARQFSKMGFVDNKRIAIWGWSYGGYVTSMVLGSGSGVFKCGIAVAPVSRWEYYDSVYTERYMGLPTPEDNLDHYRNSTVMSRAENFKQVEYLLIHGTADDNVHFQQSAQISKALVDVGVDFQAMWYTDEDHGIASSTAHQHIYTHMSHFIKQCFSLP

Take `N[C@@H](CC(=O)NCC1OCCc2ccccc21)Cc1ccccc1F` (single isomer, unassigned) [Example 67]: the half-maximal inhibitory concentration (IC50) lay in the range of 101 to 1000 nM. In the case of `N[C@@H](CC(=O)NC(Cc1ccccc1)c1ccccc1)Cc1ccccc1F` (single isomer, unassigned) [Example 74] it was 101 to 1000 nM; in that of `N[C@@H](CC(=O)NCC1CCCc2ccccc21)Cc1ccccc1F` (single isomer, unassigned) [Example 78], 101 to 1000 nM. `CN(C)C(CNC(=O)C[C@H](N)Cc1ccccc1F)c1ccccc1Cl` (single isomer, unassigned) [Example 84]: the IC50 is 101 to 1000 nM.

As for `CN(C)C(CNC(=O)C[C@H](N)Cc1ccccc1F)c1ccccc1` (single isomer, unassigned) [Example 85], the concentration for half-maximal inhibition (IC50) lay in the range of 101 to 1000 nM.

For the compound `N[C@@H](CC(=O)NC(CN1CCOCC1)c1ccccc1)Cc1ccccc1F` (single isomer, unassigned) [Example 86], the IC50 was 101 to 1000 nM. The same measure for `N[C@@H](CC(=O)NC(CN1CCCC1)c1ccccc1)Cc1ccccc1F` (single isomer, unassigned) [Example 87]: less than 100 nM; for `N[C@@H](CC(=O)NC(CN1CCCC1)c1ccccc1Cl)Cc1ccccc1F` (single isomer, unassigned) [Example 90]: less than 100 nM; for `N[C@@H](CC(=O)NC(CN1CCCC1)c1ccccc1)Cc1ccccc1F` (single isomer, unassigned) [Example 91]: 101 to 1000 nM. The same measure for `CC(CNC(=O)C[C@H](N)Cc1ccccc1F)c1ccc(Cl)cc1` (single isomer, unassigned) [Example 107]: 101 to 1000 nM; for `N[C@@H](CC(=O)NC(CN1CCCCC1)c1ccccc1)Cc1ccccc1F` (single isomer, unassigned) [Example 109]: 101 to 1000 nM; for `N[C@@H](CC(=O)NCC(c1ccccc1)N1CCCC1)Cc1ccccc1F` (single isomer, unassigned) [Example 131]: 101 to 1000 nM. The same measure for `N[C@@H](CC(=O)NCC(c1ccccc1Cl)N1CCCC1)Cc1ccccc1F` (single isomer, unassigned) [Example 132]: 101 to 1000 nM. As to `NC(CC(=O)NCC(c1ccccc1Cl)N1CCCC1)Cc1ccccc1F` (single isomer, unassigned) [Example 134], the IC50 is less than 100 nM. In the case of `NC(CC(=O)NC(CN1CCCC1)c1ccccc1)Cc1ccccc1F` (single isomer, unassigned) [Example 135] it was less than 100 nM.

As for `C[S+]([O-])c1ccccc1CNC(=O)C[C@H](N)Cc1ccccc1F` (single isomer, unassigned) [Example 137], the half-maximal inhibitory concentration (IC50) lay within 101 to 1000 nM.

Turning to `CC(C)[C@H](NC(=O)C[C@H](N)Cc1cc(F)c(F)cc1F)c1nc(C2CC2)no1` [Example 29, (R)-3-Amino-N—[(S)-1-(3-cyclopropyl-[1,2,4]oxadiazol-5-yl)-2-methyl-propyl]-4-(2,4,5-trifluoro-phenyl)-butyramide. Formic Acid Salt], the IC50 was less than 100 nM.

As to `NC(=O)c1cccc(CNC(=O)C[C@H](N)Cc2ccccc2F)c1` [Example 30, 3-{[(3R)-3-Amino-4-(2-fluoro-phenyl)-butyrylamino]-methyl}-benzamide Trifluoroacetate Salt], the IC50 was 101 to 1000 nM.

`NC(=O)c1ccc(CNC(=O)C[C@H](N)Cc2ccccc2F)cc1` [Example 31, 4-{[(3R)-3-Amino-4-(2-fluoro-phenyl)-butyrylamino]-methyl}-benzamide.trifluoroacetate Salt]: the half-inhibitory concentration (IC50) lay within 101 to 1000 nM. In the case of `N[C@@H](CC(=O)NCc1cccc(C(=O)NC2CC2)c1)Cc1ccccc1F` [Example 32, 3-{[(3R)-3-Amino-4-(2-fluoro-phenyl)-butyrylamino]-methyl}-N-cyclopropyl-benzamide. Trifluoroacetate Salt], the IC50 fell in the range of 101 to 1000 nM. Take `N[C@@H](CC(=O)NCc1cccc(C(=O)NCc2ccccc2F)c1)Cc1ccccc1F` [Example 33]: the half-inhibitory concentration (IC50) is 101 to 1000 nM. In the case of `N[C@@H](CC(=O)NCc1cccc(C(=O)Nc2ccccn2)c1)Cc1ccccc1F` [Example 34] it was 101 to 1000 nM; in that of `N[C@@H](CC(=O)NCc1cccc(C(=O)NCc2ccc(S(N)(=O)=O)cc2)c1)Cc1ccccc1F` [Example 35], 101 to 1000 nM; in that of `CN(Cc1ccccc1F)C(=O)C[C@H](N)Cc1ccccc1F` [Example 36, (3R)-Amino-N-(2-fluoro-benzyl)-4-(2-fluoro-phenyl)-N-methyl-butyramide Hydrochloride], 101 to 1000 nM. In the case of `Cc1ccccc1CN(C)C(=O)C[C@H](N)Cc1ccccc1F` [Example 37, 3-Amino-4-(2-fluoro-phenyl)-N-methyl-N-(2-methyl-benzyl)-butyramide Hydrochloride] it was 101 to 1000 nM.

With `CSc1ccccc1CN(C)C(=O)C[C@H](N)Cc1ccccc1F` [Example 38, 3-Amino-4-(2-fluoro-phenyl)-N-methyl-N-(2-methylsulfanyl-benzyl)-butyramide Hydrochloride], the half-inhibitory concentration (IC50) lay in the range of 101 to 1000 nM. The same measure for `CN(C)CCNC(=O)C[C@H](N)Cc1ccccc1F` [Example 39]: 101 to 1000 nM; for `N[C@@H](CC(=O)NCCc1ccccn1)Cc1ccccc1F` [Example 40]: 101 to 1000 nM. In the case of `N[C@@H](CC(=O)NCc1ccccc1)Cc1ccccc1F` [Example 41] it was 1000 to 2000 nM.

Consider `NC(CC(=O)NC1c2ccccc2CC1O)Cc1ccccc1F` (stereo not shown) [Example 43], for which the IC50 lay within 1000 to 2000 nM. The same measure for `N[C@@H](CC(=O)NCc1ccc(Cl)cc1Cl)Cc1ccccc1F` [Example 44]: 101 to 1000 nM; for `NC(CC(=O)NC1CCCc2ccccc21)Cc1ccccc1F` (stereo not shown) [Example 45]: 101 to 1000 nM.

As for `N[C@@H](CC(=O)NCc1cc(F)cc(F)c1)Cc1ccccc1F` [Example 46], the IC50 fell in the range of 101 to 1000 nM. The same measure for `N[C@@H](CC(=O)NC(c1ccccc1)c1ccccc1)Cc1ccccc1F` [Example 47]: 101 to 1000 nM; for `N[C@@H](CC(=O)NCc1ccncc1)Cc1ccccc1F` [Example 48]: 101 to 1000 nM. In the case of `Cc1ccccc1CNC(=O)C[C@H](N)Cc1ccccc1F` [Example 49] it was 101 to 1000 nM; in that of `N[C@@H](CC(=O)NCCc1ccccc1)Cc1ccccc1F` [Example 50], 101 to 1000 nM; in that of `N[C@@H](CC(=O)NCc1cc(Cl)ccc1Cl)Cc1ccccc1F` [Example 51], 101 to 1000 nM. The same measure for `N[C@@H](CC(=O)NCc1ccccn1)Cc1ccccc1F` [Example 52]: 101 to 1000 nM; for `N[C@@H](CC(=O)NCc1ccc(Cl)cc1)Cc1ccccc1F` [Example 54]: 101 to 1000 nM; for `N[C@@H](CC(=O)NC1Cc2ccccc2C1)Cc1ccccc1F` [Example 55]: 101 to 1000 nM.

As to `N[C@@H](CC(=O)NCc1ccc2c(c1)CCO2)Cc1ccccc1F` [Example 56], the IC50 was in the range of 101 to 1000 nM. The same measure for `COc1ccc(-c2cc(CNC(=O)C[C@H](N)Cc3ccccc3F)on2)cc1` [Example 57]: 101 to 1000 nM; for `N[C@@H](CC(=O)NCc1cccnc1)Cc1ccccc1F` [Example 58]: 101 to 1000 nM. The same measure for `N[C@@H](CC(=O)NCc1ccc2c(c1)OCCO2)Cc1ccccc1F` [Example 61]: 101 to 1000 nM. In the case of `Cc1cc(CNC(=O)C[C@H](N)Cc2ccccc2F)no1` [Example 62] it was 101 to 1000 nM; in that of `N[C@@H](CC(=O)NCc1ccc(-n2cccn2)cc1)Cc1ccccc1F` [Example 63], less than 100 nM.

Turning to `N[C@@H](CC(=O)NCc1cccc(-c2ccccc2)c1)Cc1ccccc1F` [Example 64], the 50% inhibitory concentration (IC50) lay in the range of 1000 to 2000 nM. In the case of `N[C@@H](CC(=O)NCc1cc(F)c(F)c(F)c1)Cc1ccccc1F` [Example 65] it was 101 to 1000 nM; in that of `N[C@@H](CC(=O)NCc1ccc(C(F)(F)F)cc1)Cc1ccccc1F` [Example 68], 101 to 1000 nM; in that of `N[C@@H](CC(=O)NCc1ccccc1C(F)(F)F)Cc1ccccc1F` [Example 69], 1000 to 2000 nM. The same measure for `N[C@@H](CC(=O)NCc1cccc(Cl)c1)Cc1ccccc1F` [Example 70]: 101 to 1000 nM.

As to `N[C@@H](CC(=O)NCc1c(Cl)cccc1Oc1ccccc1)Cc1ccccc1F` [Example 71], the half-maximal inhibitory concentration (IC50) lay in the range of 101 to 1000 nM.

With `CC(C)c1ccc(CNC(=O)C[C@H](N)Cc2ccccc2F)cc1` [Example 73], the IC50 fell in the range of 101 to 1000 nM. Regarding `N[C@@H](CC(=O)NCc1ccccc1-c1ccccc1)Cc1ccccc1F` [Example 75], the 50% inhibitory concentration (IC50) was in the range of 101 to 1000 nM. As for `NC(CC(=O)NCc1ccc(Oc2ccccc2)cc1)Cc1ccccc1F` (stereo not shown) [Example 76], the IC50 fell in the range of 101 to 1000 nM. Regarding `N[C@@H](CC(=O)NCc1cccc(Oc2ccccc2)c1)Cc1ccccc1F` [Example 77], the IC50 fell in the range of 101 to 1000 nM. In the case of `Cc1noc(C)c1CCNC(=O)C[C@H](N)Cc1ccccc1F` [Example 80] it was 101 to 1000 nM; in that of `COc1cccc(CCNC(=O)C[C@H](N)Cc2ccccc2F)c1` [Example 81], 1000 to 2000 nM; in that of `N[C@@H](CC(=O)NCCN1CCCCC1)Cc1ccccc1F` [Example 82], 101 to 1000 nM. In the case of `N[C@@H](CC(=O)NCCc1cccnc1)Cc1ccccc1F` [Example 83], the IC50 was in the range of 101 to 1000 nM. In the case of `Cc1ccc(C(C)NC(=O)CC(N)Cc2ccccc2F)cc1` (stereo not shown) [Example 89] it was 101 to 1000 nM; in that of `N[C@@H](CC(=O)NCCc1ccc(Cl)c(Cl)c1)Cc1ccccc1F` [Example 92], 101 to 1000 nM; in that of `C[C@H](CNC(=O)C[C@H](N)Cc1ccccc1F)c1ccccc1` [Example 93], 1000 to 2000 nM.

In general, IC50 refers to the point on the concentration scale where inhibition reaches its midpoint.
